Patent US10617701B2, “Nutritional compositions containing phosphatidylethanolamine, sphingomyelin and docosahexaenoic acid” (Mead Johnson Nutrition Company, priority 2015, dated 2020)

Experiments:
[1] = tested on: embryonic mouse cortical cells; assay: Functional neuronal maturation of cortical networks on microelectrode arrays (MEA recording, chronic treatment); assay type: cell-based; conditions: for acute effect on neuronal network activity in vitro: cortical networks on MEAs
Procedure: Cortical cells were grown on multi-well microelectrode arrays (MEAs) and treated with 10 different experimental series, including different combinations of test agents (PE, SM, LF and DHA) and the activity was recoded at 4 different time points during the 4 weeks of functional neuronal maturation Cells growing on glass slides were treated in parallel for morphological and cell population analysis. These experiments aimed to elucidate whether the test compounds affect the functional and morphological neuronal maturation […] (see FIG. 1).
All experiments were performed according to the standard operating protocols (SOPs): “SOP Preparation Frontal Cortex Mouse—Serum,” “SOP Solutions for Neuronal Cell Culture,” “SOP Cleaning and Substrate Preparations of MEAs,” “SOP Feeding neuronal cell culture,” “SOP Cell culture preparation MEAs,” “SOP Plexon Recording,” “SOP Plexon Data Analysis.”
Microelectrode Array Neurochips: THE MEA neurochips were provided by the Center for Network Neuroscience (CNNS) at the University of North Texas. These 5×5 cm^2 glass chips have a dual recording matrix with 32 passive electrodes per matrix and indium tin oxide conductors. The hydrophobic insulation material surface was activated by a brief butane flame pulse through a stainless steel mask. Thus, cell attachment on a confined adhesive region (5 mm diameter centered on the electrode array) is ensured. The activated surface regions were coated with poly-D-lysine (25 microgram/mL; 30-70 kD) and incubated overnight. […]
Primary cell culture for MEA recordings: In brief, frontal cortex tissue was harvested from embryonic day […] NMRI mice. […] Cultures on MEAs were incubated at 37° C. in a 10% CO2 atmosphere until ready for use, which usually is four weeks to three months after seeding. […]
Multichannel Recording: After establishing a stable activity pattern after 4 weeks, the neuronal networks on MEA chips are employed for substance testing. […] The signals routinely recorded by these neurochips are located in a range of 15-1800 […] . […]

[2] = tested on: embryonic mouse cortical cells; assay: Immunocytochemistry / fluorescence image analysis of neuronal network morphology (neuron number, % neurons, synaptic density); assay type: cell-based; conditions: chronic treatment over 4 weeks
Procedure: Primary Cell culture for immunocytochemistry and Fluorescence staining: The chronically treated cultures were grown on 24-well plates on 13 mm glass cover slides and cultured with PNGM medium including 5% FCS and gentamycin+ampicillin. The cells were treated 2× per week during ⅓ medium exchange. The complete concentration of phospholipids was replenished every time.
Immunocytochemistry and Fluorescence staining: These 24 well-plate cultures were analyzed by immunocytochemistry, fluorescence microscopy and semiautomatic quantitative image analysis at 7, 14, 21, and 28 days. […] Cortical networks were embedded with Prolong anti-fade gold (Invitrogen, Darmstadt, Germany) and images acquired with an upright fluorescence microscope (Nikon Eclipse TE200, NikonAG, Tokyo, Japan).
Image analysis: These images were analyzed by semi-automatic image quantification tools (MS Excel macro-based in house analyses; ImageJ, Rawak Software, NIH, USA). […]
The repeated treatment with LF+PE+SM+DHA affects development of neuronal network morphology: The recorded networks were fixed after the final 28 div recording and immunostained for neuronal markers. Images were taken and the cell neuronal numbers quantified by semi-automatic image analyses.

| Substance | acute effect on neuronal network activity in vitro [1] | developmental halt at later stages ([1]; repeated treatment 2x per week, DHA 20 μM, PE 100 nM, LF 300 nM, SM 100 nM, recorded at 7-10, 14, 21 and 28 div, FIG. 2) | synaptic density [2] |
| --- | --- | --- | --- |
| phosphatidylethanolamine [PE] | acutely affect neuronal network activity |  |  |
| sphingomyelin [SM] | acutely affect neuronal network activity | developmental halt at later stages | able to increase the synaptic density |
